Test results published in ChEMBL document CHEMBL1127099, “Anticonvulsant activity of glycine-site NMDA antagonists. 2. trans 2-carboxy-4-substituted tetrahydroquinolines” (Bioorg Med Chem Lett, 1993).

Experiments:
Mus musculus [1] = assay: Tested for the anticonvulsant activity in DBA/2 mice after 30 mins of intraperitoneal administration; format: functional; settings: ip, 0.5 h
Rattus norvegicus = species on record: Rattus norvegicus; assay: Tested for the antagonistic potency for blockade of NMDA-induced depolarizations in rat cortical slices; format: functional
Glutamate NMDA receptor [2] = assay: Tested for the binding affinity at glycine recognition site of the NMDA receptor in rat cortical membranes using radiolabeled [3H]- L-689 560; format: cell membranes, Membrane
[3] = Ratio of ED50 values administered intracerebroventricular to that of antagonistic potency (Kb); format: functional
[4] = Plasma half-life was tested; format: ADME, cell-free
[5] = Partition coefficient (logP); format: physicochemical; settings: octanol/water
Glutamate NMDA receptor [6] = assay: Tested for the binding affinity at glycine recognition site of the NMDA receptor in rat cortical membranes using radiolabeled [3H]-L-689,560 560; format: cell membranes, Membrane
Mus musculus [7] = assay: Tested for the anticonvulsant activity in DBA/2 mice after 15 mins of intracerebroventricular administration at pH 8.0; format: functional

Compound `NC(Cc1ccc(CC(=O)N[C@H]2C[C@H](C(=O)O)Nc3cc(Cl)cc(Cl)c32)cc1)C(=O)O` (stereo partly drawn) has an ED50 (Mus musculus [1]) of 29 mg/kg, a Kb (Rattus norvegicus) of 840 nM and an IC50 (Glutamate NMDA receptor [2]) of 32 nM. For the same compound, the Ratio [3] was 0.6.

In the case of `NCc1ccc(CC(=O)N[C@H]2C[C@H](C(=O)O)Nc3cc(Cl)cc(Cl)c32)cc1`, the ED50 (Mus musculus [1]) is reported as 39 mg/kg, the Kb (Rattus norvegicus) is reported as 240 nM and the IC50 (Glutamate NMDA receptor [2]) is reported as 19 nM. The Ratio [3] was 15 and the half-life [4] was 1.83 h.

`O=C(Nc1ccccc1)N[C@H]1C[C@H](C(=O)O)Nc2cc(Cl)cc(Cl)c21` gave an ED50 (Mus musculus [1]) greater than 100 mg/kg and a Kb (Rattus norvegicus) of 130 nM.

For `O=C(O)C[C@H]1C[C@H](C(=O)O)Nc2cc(Cl)cc(Cl)c21`, the IC50 (Glutamate NMDA receptor [2]) was 74 nM.

Work on `O=C(Cc1ccccc1)N[C@H]1C[C@H](C(=O)O)Nc2cc(Cl)cc(Cl)c21` yielded an ED50 (Mus musculus [1]) of 46 mg/kg, a Kb (Rattus norvegicus) of 530 nM and a logP [5] of 0.55. For the same compound, the IC50 (Glutamate NMDA receptor [6]) was 14 nM and the Ratio [3] was 9.

`O=[N+]([O-])c1cc([N+](=O)[O-])c2nc(O)c(O)nc2c1` gave an ED50 (Mus musculus [1]) greater than 10 mg/kg, a Kb (Rattus norvegicus) of 1230 nM and a Ratio [3] greater than 16.

Work on `CN(C(=O)Nc1ccccc1)[C@H]1C[C@H](C(=O)O)Nc2cc(Cl)cc(Cl)c21` yielded an IC50 (Glutamate NMDA receptor [2]) of 9 nM.

With `O=C(O)c1cc(O)c2c(Cl)cc(Cl)cc2n1` the ED50 (Mus musculus [1]) was greater than 250 mg/kg.

In the case of `COC(=O)[C@H]1C[C@H](NC(=O)Cc2ccc(CN)cc2)c2c(Cl)cc(Cl)cc2N1.Cl`, the ED50 (Mus musculus [1]) is reported as 31.5 mg/kg.

In the case of `O=C(C[C@H]1C[C@H](C(=O)O)Nc2cc(Cl)cc(Cl)c21)Nc1ccccc1`, the IC50 (Glutamate NMDA receptor [6]) is reported as 19 nM.

With `C/C(=C\C(N)C(=O)O)CP(=O)(O)O` (stereo not drawn) [CGP-37849] the ED50 (Mus musculus [7]) was 0.02 nM, the ED50 (Mus musculus [1]) was 0.8 mg/kg and the Kb (Rattus norvegicus) was 200 nM. The Ratio [3] was 0.1.

For `C[C@]12N[C@H](Cc3ccccc31)c1ccccc12` [DIZOCILPINE], the ED50 (Mus musculus [1]) was 0.2 mg/kg, the Kb (Rattus norvegicus) was 80 nM and the Ratio [3] was 23.

`O=C(O)c1cc(=O)c2ccccc2[nH]1` [TRANSTORINE] showed an ED50 (Mus musculus [1]) greater than 250 mg/kg and a Kb (Rattus norvegicus) of 154000 nM.
